# Laboratory results taken from ChEMBL document CHEMBL3045590, “Design, synthesis, bioactivity, and structure-activity relationship (SAR) studies of novel benzoylphenylureas containing oxime ether group” (2008).
# Columns and labels:
# Type in all cases: functional
# Mythimna separata [1] = test: Larvicidal activity against fourth-instar larval stage of Mythimna separata (Oriental armyworm) in compound-pretreated corn leaves assessed as mortality at 10 mg/l at 25 +/-1 degC after 4 days
# Culex pipiens pallens [2] = test: Larvicidal activity against fourth-instar larval stage of Culex pipiens pallens (mosquito) assessed as mortality at 0.1 mg/l at 25 +/-1 degC after 8 days; settings: 192 h
# Culex pipiens pallens [3] = test: Larvicidal activity against fourth-instar larval stage of Culex pipiens pallens (mosquito) assessed as mortality at 2 mg/l at 25 +/-1 degC after 8 days; settings: 192 h
# Culex pipiens pallens [4] = test: Larvicidal activity against fourth-instar larval stage of Culex pipiens pallens (mosquito) assessed as mortality at 1 mg/l at 25 +/-1 degC after 8 days; settings: 192 h
# Cucumis sativus = test: Growth regulation of Cucumis sativus (cucumber) seeds assessed as stimulation of radicle growth at 10 mg/l at 26 degC after 5 days
# Mythimna separata [5] = test: Larvicidal activity against fourth-instar larval stage of Mythimna separata (Oriental armyworm) in compound-pretreated corn leaves assessed as mortality at 25 mg/l at 25 +/-1 degC after 4 days
# Culex pipiens pallens [6] = test: Larvicidal activity against fourth-instar larval stage of Culex pipiens pallens (mosquito) assessed as mortality at 0.25 mg/l at 25 +/-1 degC after 8 days; settings: 192 h
# Mythimna separata [7] = test: Larvicidal activity against fourth-instar larval stage of Mythimna separata (Oriental armyworm) in compound-pretreated corn leaves assessed as mortality at 50 mg/l at 25 +/-1 degC after 4 days
# Culex pipiens pallens [8] = test: Larvicidal activity against fourth-instar larval stage of Culex pipiens pallens (mosquito) assessed as mortality at 0.5 mg/l at 25 +/-1 degC after 8 days; settings: 192 h
# Culex pipiens pallens [9] = test: Larvicidal activity against fourth-instar larval stage of Culex pipiens pallens (mosquito) assessed as mortality at 0.05 mg/l at 25 +/-1 degC after 8 days; settings: 192 h
# Culex pipiens pallens [10] = test: Larvicidal activity against fourth-instar larval stage of Culex pipiens pallens (mosquito) assessed as mortality at 0.01 mg/l at 25 +/-1 degC after 8 days; settings: 192 h
# Mythimna separata [11] = test: Larvicidal activity against fourth-instar larval stage of Mythimna separata (Oriental armyworm) in compound-pretreated corn leaves assessed as mortality at 0.5 mg/l at 25 +/-1 degC after 4 days
# Mythimna separata [12] = test: Larvicidal activity against fourth-instar larval stage of Mythimna separata (Oriental armyworm) in compound-pretreated corn leaves assessed as mortality at 0.25 mg/l at 25 +/-1 degC after 4 days
# Culex pipiens pallens [13] = test: Larvicidal activity against fourth-instar larval stage of Culex pipiens pallens (mosquito) assessed as mortality at 0.001 mg/l at 25 +/-1 degC after 8 days; settings: 192 h
# Culex pipiens pallens [14] = test: Larvicidal activity against fourth-instar larval stage of Culex pipiens pallens (mosquito) assessed as mortality at 0.025 mg/l at 25 +/-1 degC after 8 days; settings: 192 h
# Culex pipiens pallens [15] = test: Larvicidal activity against fourth-instar larval stage of Culex pipiens pallens (mosquito) assessed as mortality at 0.0025 mg/l at 25 +/-1 degC after 8 days; settings: 192 h
# Culex pipiens pallens [16] = test: Larvicidal activity against fourth-instar larval stage of Culex pipiens pallens (mosquito) assessed as mortality at 0.005 mg/l at 25 +/-1 degC after 8 days; settings: 192 h
# Culex pipiens pallens [17] = test: Ratio of larvicidal activity of compound to larvicidal activity of Flucycloxuron for fourth-instar larval stage of Culex pipiens pallens (mosquito) measured after 8 days
# Mythimna separata [18] = test: Larvicidal activity against fourth-instar larval stage of Mythimna separata (Oriental armyworm) in compound-pretreated corn leaves assessed as mortality at 1 mg/l at 25 +/-1 degC after 4 days
# Mythimna separata [19] = test: Larvicidal activity against fourth-instar larval stage of Mythimna separata (Oriental armyworm) in compound-pretreated corn leaves assessed as mortality at 5 mg/l at 25 +/-1 degC after 4 days
# Mythimna separata [20] = test: Larvicidal activity against fourth-instar larval stage of Mythimna separata (Oriental armyworm) in compound-pretreated corn leaves assessed as mortality at 2.5 mg/l at 25 +/-1 degC after 4 days
# Mythimna separata [21] = test: Ratio of Flucycloxuron LC50 to compound LC50 for fourth-instar larval stage of Mythimna separata (Oriental armyworm) measured after 4 days
# Culex pipiens pallens [22] = test: Larvicidal activity against fourth-instar larval stage of Culex pipiens pallens (mosquito) assessed as mortality at 0.0005 mg/l at 25 +/-1 degC after 8 days; settings: 192 h
# Mythimna separata [23] = test: Larvicidal activity against fourth-instar larval stage of Mythimna separata (Oriental armyworm) in compound-pretreated corn leaves assessed as mortality at 25 +/-1 degC after 4 days
# Mythimna separata [24] = test: Larvicidal activity against fourth-instar larval stage of Mythimna separata (Oriental armyworm) in compound-pretreated corn leaves assessed as mortality at 200 mg/l at 25 +/-1 degC after 4 days
# Mythimna separata [25] = test: Larvicidal activity against fourth-instar larval stage of Mythimna separata (Oriental armyworm) in compound-pretreated corn leaves assessed as mortality at 100 mg/l at 25 +/-1 degC after 4 days
# Culex pipiens pallens [26] = test: Larvicidal activity against fourth-instar larval stage of Culex pipiens pallens (mosquito) assessed as mortality at 0.00025 mg/l at 25 +/-1 degC after 8 days; settings: 192 h
# Mythimna separata [27] = test: Larvicidal activity against fourth-instar larval stage of Mythimna separata (Oriental armyworm) in compound-pretreated corn leaves assessed as mortality at 0.125 mg/l at 25 +/-1 degC after 4 days
# Mythimna separata [28] = test: Ratio of Hexaflumuron LC50 to compound LC50 for fourth-instar larval stage of Mythimna separata (Oriental armyworm) measured after 4 days
SMILES,mortality at 10 µg/mL (Mythimna separata [1]) [%],mortality at 0.1 µg/mL (Culex pipiens pallens [2]) [%],mortality at 2 µg/mL (Culex pipiens pallens [3]) [%],mortality at 1 µg/mL (Culex pipiens pallens [4]) [%],mortality at 25 µg/mL (Mythimna separata [5]) [%],mortality at 0.25 µg/mL (Culex pipiens pallens [6]) [%],mortality at 0.5 µg/mL (Culex pipiens pallens [8]) [%],mortality at 0.05 µg/mL (Culex pipiens pallens [9]) [%],mortality at 0.01 µg/mL (Culex pipiens pallens [10]) [%],mortality at 0.5 µg/mL (Mythimna separata [11]) [%],mortality at 0.25 µg/mL (Mythimna separata [12]) [%],mortality at 0.001 µg/mL (Culex pipiens pallens [13]) [%],mortality at 0.025 µg/mL (Culex pipiens pallens [14]) [%],mortality at 0.0025 µg/mL (Culex pipiens pallens [15]) [%],mortality at 0.005 µg/mL (Culex pipiens pallens [16]) [%],RatioLC50 (Culex pipiens pallens [17]),mortality at 1 µg/mL (Mythimna separata [18]) [%],mortality at 5 µg/mL (Mythimna separata [19]) [%],mortality at 2.5 µg/mL (Mythimna separata [20]) [%],mortality at 200 µg/mL (Mythimna separata [24]) [%],further results
CCCCCO/N=C/c1ccc(NC(=O)NC(=O)c2c(F)cccc2F)cc1,0,15,100,100,20,80,90,0,–,–,–,–,–,–,–,–,–,–,–,–,Activity (Cucumis sativus): 50%; mortality at 50 µg/mL (Mythimna separata [7]): 90%
O=C(NC(=O)c1c(F)cccc1F)Nc1ccc(/C=N/OCC(F)(F)F)cc1,100,100,–,–,100,–,–,100,100,60,0,10,100,70,100,10,90,100,100,–,–
CC(C)(C)O/N=C/c1ccc(NC(=O)NC(=O)c2c(F)cccc2F)cc1,100,100,–,–,100,–,–,100,100,85,0,70,100,90,100,10,100,100,100,–,RatioLC50 (Mythimna separata [21]): 5; mortality at 0.0005 µg/mL (Culex pipiens pallens [22]): 20%
O=C(NC(=O)c1c(F)cccc1F)Nc1ccc(CO/N=C(/c2ccc(Cl)cc2)C2CC2)cc1 [FLUCYCLOXURON],95,100,–,–,–,–,–,100,0,0,–,–,15,–,–,–,10,90,50,–,LC50 (Mythimna separata [23]): 2.44 µg/mL
O=C(NC(=O)c1c(F)cccc1F)Nc1ccc(/C=N/O)cc1,–,10,100,100,–,40,60,–,–,–,–,–,–,–,–,–,–,–,–,80,–
C[Si](C)(C)O/N=C/c1ccc(NC(=O)NC(=O)c2c(F)cccc2F)cc1,–,–,100,100,–,0,100,–,–,–,–,–,–,–,–,–,–,–,–,100,mortality at 100 µg/mL (Mythimna separata [25]): 60%; mortality at 50 µg/mL (Mythimna separata [7]): 0%
O=C(NC(=O)c1c(F)cccc1F)Nc1ccc(/C=N/OC(C(F)(F)F)C(F)(F)F)cc1,100,100,–,–,100,–,–,100,100,40,0,90,100,100,100,10,90,100,100,–,mortality at 0.00025 µg/mL (Culex pipiens pallens [26]): 30%; mortality at 0.0005 µg/mL (Culex pipiens pallens [22]): 60%
CC1CCC(C(C)C)C(O/N=C/c2ccc(NC(=O)NC(=O)c3c(F)cccc3F)cc2)C1 (centres undefined),100,–,–,–,100,–,–,–,100,40,10,80,–,100,100,10,80,100,100,–,mortality at 0.125 µg/mL (Mythimna separata [27]): 0%; mortality at 0.0005 µg/mL (Culex pipiens pallens [22]): 10%
O=Cc1ccc(NC(=O)NC(=O)c2c(F)cccc2F)cc1,–,–,100,80,–,–,0,–,–,–,–,–,–,–,–,–,–,–,–,0,mortality at 100 µg/mL (Mythimna separata [25]): 0%
O=C(NC(=O)c1c(F)cccc1F)Nc1ccc(/C=N/OCC2CCCC2)cc1,0,10,100,100,10,10,10,–,–,–,–,–,–,–,–,–,–,–,–,80,mortality at 100 µg/mL (Mythimna separata [25]): 40%; mortality at 50 µg/mL (Mythimna separata [7]): 10%
CC(C)O/N=C/c1ccc(NC(=O)NC(=O)c2c(F)cccc2F)cc1,–,100,–,100,–,100,100,100,100,50,0,0,100,15,75,–,100,–,100,–,RatioLC50 (Mythimna separata [21]): 5; RatioLC50 (Mythimna separata [28]): 9.4; Activity (Cucumis sativus): 55%; LC50 (Mythimna separata [23]): 0.5 µg/mL
